According to patent US8466089B2, “Pyrazole compounds, process for their production and herbicides containing them” (Ishihara Sangyo Kaisha, Ltd., priority 2008, dated 2013):

Tests used:
Type in all cases: in vivo
[1] = test system: prickly sida (Sida spinosa L.); test: Test Example 2, soil application on the day after sowing; details: 21st to 22nd day after application, visual, read-out: Growth inhibition rate (%) Prickly sida
Outline: (§1)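 Herbicidal effect is given as percent growth inhibition, judged by eye 21–22 days after soil application made on the day after sowing. The spray volume was 500 L/ha water.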

[2] = test system: redroot pigweed (Amaranthus retroflexus L.); test: as above; details: 21st to 22nd day after application, visual, read-out: Growth inhibition rate (%) Redroot pigweed
Outline: as §1

[3] = test system: velvetleaf (Abutilon theophrasti MEDIC.); test: as above; details: 21st to 22nd day after application, visual, read-out: Growth inhibition rate (%) Velvetleaf
Outline: as §1

[4] = test system: green foxtail (Setaria viridis L.); test: as above; details: 21st to 22nd day after application, visual, read-out: Growth inhibition rate (%) Green foxtail
Outline: as §1

[5] = test system: barnyardgrass (Echinochloa crus-galli L.); test: as above; details: 21st to 22nd day after application, visual, read-out: Growth inhibition rate (%) Barnyardgrass
Outline: as §1

[6] = test system: crabgrass (Digitaria sanquinalis L.); test: as above; details: 21st to 22nd day after application, visual, read-out: Growth inhibition rate (%) Crabgrass
Outline: as §1

[7] = test system: soybean (Glycine max Merr.); test: as above; details: 21st to 22nd day after application, visual, read-out: Growth inhibition rate (%) Soybean
Outline: as §1

[8] = test system: prickly sida (Sida spinosa L.); test: Test Example 1, foliar treatment in upland pots; details: 20th to 22nd day after application, visual, read-out: Growth inhibition rate (%) Prickly sida
[9] = test system: soybean (Glycine max Merr.); test: Test Example 1, foliar treatment in upland pots; details: 20th to 22nd day after application, visual, read-out: Growth inhibition rate (%) Soybean
Outline: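 Pot test, foliar spray: formulated actives at prescribed a.i. amounts, spray volume 500 L/ha, 0.1 vol% spreader. Treated at rice 1.2–2.5 / corn 2.0–3.3 / foxtail 1.5–3.0 leaf, soybean primary leaf–0.3 leaf. Readout: visual % inhibition vs non-treated, d20–22.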

wheat (Triticum spp.) = test: Test Example 1, foliar treatment in upland pots; details: 20th to 22nd day after application, visual, read-out: Growth inhibition rate (%) Wheat

SMILES	inhibition at 250 g/ha [1] [%]	inhibition at 250 g/ha [2] [%]	inhibition at 250 g/ha [3] [%]	inhibition at 250 g/ha [4] [%]	inhibition at 250 g/ha [5] [%]	inhibition at 250 g/ha [6] [%]	inhibition at 250 g/ha [7] [%]	inhibition at 7 g/ha [8] [%]	inhibition at 7 g/ha [9] [%]	inhibition at 7 g/ha (wheat (Triticum spp.)) [%]
COCCOc1c(S(C)(=O)=O)ccc(C(=O)c2c(C)nn(C)c2O)c1C [Compound No. 5-2, (5-Hydroxy-1,3-dimethyl-1H-pyrazol-4-yl)(3-(2-methoxyethoxy)-2-methyl-4-(methylsulfonyl)phenyl)ketone]	0	90	70	60	10	100	20	40	70	
CCOC(=O)OC(C)Oc1c(C(=O)c2ccc(S(C)(=O)=O)c(OCCOC(C)C)c2C)cnn1C (stereo not shown) [Compound No. 1-5, Ethyl 1-(4-(3-(2-isopropoxyethoxy)-2-methyl-4-(methylsulfonyl)benzoyl)-1-methyl-1H-pyrazol-5-yloxy)ethyl carbonate]	90	100	100	100	100	95	10	0		0
COCCOc1c(S(C)(=O)=O)ccc(C(=O)c2cnn(C(C)C)c2OC(C)OC(=O)OC)c1C (stereo not shown) [Compound No. 4-1, 1-(1-Isopropyl-4-(3-(2-methoxyethoxy)-2-methyl-4-(methylsulfonyl)benzoyl)-1H-pyrazol-5-yloxy)ethyl methyl carbonate]	95	100	100	100	100	100	0	60	95	0
CCn1nc(C)c(C(=O)c2ccc(S(C)(=O)=O)c(OCCOC)c2C)c1O [Compound No. 6-1, (1-Ethyl-5-hydroxy-3-methyl-1H-pyrazol-4-yl)(3-(2-methoxyethoxy)-2-methyl-4-(methylsulfonyl)phenyl)ketone]	80	100	80	98	100	100	60	0		0
CCc1nn(C)c(O)c1C(=O)c1ccc(S(C)(=O)=O)c(OCCOC)c1C [Compound No. 5-3, (5-Hydroxy-1-methyl-3-ethyl-1H-pyrazol-4-yl)(3-(2-methoxyethoxy)-2-methyl-4-(methylsulfonyl)phenyl)ketone]	20	100	30	60	50	95	0	30	0	
COC(=O)OC(C)Oc1c(C(=O)c2ccc(S(C)(=O)=O)c(C(=O)OC)c2C)cnn1C (stereo not shown) [Compound No. 1-2, Methyl 3-(5-(1-(methoxycarbonyloxy)ethoxy)-1-methyl-1H-pyrazole-4-carbonyl)-2-methyl-6-(methylsulfonyl)benzoate]	98	100	100	100	100	100	70		95	0
CCCn1ncc(C(=O)c2ccc(S(C)(=O)=O)c(OCCOC)c2C)c1O [Compound No. 7-1, (5-Hydroxy-1-n-propyl-1H-pyrazol-4-yl)(3-(2-methoxyethoxy)-2-methyl-4-(methylsulfonyl)phenyl)ketone]	80	100	95	90	98	100	20	20	60	0
CCCn1ncc(C(=O)c2ccc(S(C)(=O)=O)c(OCCOC)c2C)c1OC(C)OC(=O)OCC (stereo not shown) [Compound No. 3-1, Ethyl 1-(1-n-propyl-4-(3-(2-methoxyethoxy)-2-methyl-4-(methylsulfonyl)benzoyl)-1H-pyrazol-5-yloxy)ethyl carbonate]	80	40	80	60	60	80	0	0		0
COCCOc1c(S(C)(=O)=O)ccc(C(=O)c2c(C)nn(C)c2OC(C)OC(=O)OC)c1C (stereo not shown) [Compound No. 1-6, 1-(4-(3-(2-Methoxyethoxy)-2-methyl-4-(methylsulfonyl)benzoyl)-1,3-dimethyl-1H-pyrazol-5-yloxy)ethyl methyl carbonate]	99	100	100	70	100	100	0	70	80	0
COCCOc1c(S(C)(=O)=O)ccc(C(=O)c2cnn(C(C)C)c2O)c1C [Compound No. 8-1, (5-Hydroxy-1-isopropyl-1H-pyrazol-4-yl)(3-(2-methoxyethoxy)-2-methyl-4-(methylsulfonyl)phenyl)ketone]	40	100	100	100	100	100	0	30	40	0
Cc1c(C(=O)c2cnn(C)c2O)ccc(S(C)(=O)=O)c1OCCC(C)C [Compound No. 5-1, (5-Hydroxy-1-methyl-1H-pyrazol-4-yl)(3-(2-isopropylethoxy)-2-methyl-4-(methylsulfonyl)phenyl)ketone]	98	100	100	95	98	98	0	40		0
